ChEMBL document CHEMBL3991601, “The target landscape of clinical kinase drugs” (Science, 2017)
The source made the active and inactive calls.

Assays:
[1] = biological target: T1, MAP kinase-activated protein kinase 5 (Homo sapiens, UniProt Q8IW41)
T1 sequence (Q8IW41 whole entry): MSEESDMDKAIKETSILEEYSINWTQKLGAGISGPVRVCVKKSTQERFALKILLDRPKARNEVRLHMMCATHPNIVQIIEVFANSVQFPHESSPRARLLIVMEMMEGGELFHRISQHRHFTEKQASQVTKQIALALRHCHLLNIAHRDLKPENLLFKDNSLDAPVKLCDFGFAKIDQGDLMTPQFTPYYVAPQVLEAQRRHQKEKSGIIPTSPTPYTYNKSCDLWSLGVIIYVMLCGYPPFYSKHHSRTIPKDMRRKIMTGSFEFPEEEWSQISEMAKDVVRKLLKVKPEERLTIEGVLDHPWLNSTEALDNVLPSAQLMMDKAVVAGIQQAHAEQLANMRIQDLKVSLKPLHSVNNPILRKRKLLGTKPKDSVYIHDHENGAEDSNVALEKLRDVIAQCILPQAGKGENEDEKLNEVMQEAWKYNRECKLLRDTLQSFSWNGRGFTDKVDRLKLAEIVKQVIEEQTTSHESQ

[2] = biological target: Insulin receptor (Homo sapiens, UniProt P06213)
[3] = biological target: Mitotic checkpoint serine/threonine-protein kinase BUB1 (Homo sapiens, UniProt O43683)
[4] = biological target: Casein kinase I isoform epsilon (Homo sapiens, UniProt P49674)
[5] = biological target: T2, Bone morphogenetic protein receptor type-2 (Homo sapiens, UniProt Q13873)
T2 sequence (Q13873 whole entry): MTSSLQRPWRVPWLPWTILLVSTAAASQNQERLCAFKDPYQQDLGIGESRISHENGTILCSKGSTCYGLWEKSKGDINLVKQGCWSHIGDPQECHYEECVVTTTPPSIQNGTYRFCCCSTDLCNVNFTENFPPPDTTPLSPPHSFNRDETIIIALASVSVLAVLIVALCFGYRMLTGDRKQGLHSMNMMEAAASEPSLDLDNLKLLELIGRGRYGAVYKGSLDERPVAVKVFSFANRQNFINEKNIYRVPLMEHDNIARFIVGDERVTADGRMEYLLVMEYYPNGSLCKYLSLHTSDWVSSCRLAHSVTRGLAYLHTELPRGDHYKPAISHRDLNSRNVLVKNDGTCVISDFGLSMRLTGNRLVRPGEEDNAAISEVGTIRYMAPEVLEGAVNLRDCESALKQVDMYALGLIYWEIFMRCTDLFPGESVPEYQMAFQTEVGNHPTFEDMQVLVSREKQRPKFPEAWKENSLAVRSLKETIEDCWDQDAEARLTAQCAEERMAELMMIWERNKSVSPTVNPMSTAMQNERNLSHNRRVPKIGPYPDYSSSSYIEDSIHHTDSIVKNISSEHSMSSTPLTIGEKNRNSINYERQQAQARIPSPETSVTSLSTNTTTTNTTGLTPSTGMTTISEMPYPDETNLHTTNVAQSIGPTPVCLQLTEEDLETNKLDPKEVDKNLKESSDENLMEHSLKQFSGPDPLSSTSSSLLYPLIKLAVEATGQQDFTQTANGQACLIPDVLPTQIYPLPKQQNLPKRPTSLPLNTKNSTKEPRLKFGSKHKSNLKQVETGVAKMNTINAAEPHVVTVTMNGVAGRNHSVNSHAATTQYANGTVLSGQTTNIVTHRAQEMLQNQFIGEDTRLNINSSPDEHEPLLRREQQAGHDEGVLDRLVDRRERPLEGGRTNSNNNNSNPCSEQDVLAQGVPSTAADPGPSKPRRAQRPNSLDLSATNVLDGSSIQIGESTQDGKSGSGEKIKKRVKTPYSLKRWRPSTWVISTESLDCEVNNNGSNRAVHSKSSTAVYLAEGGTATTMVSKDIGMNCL

[6] = biological target: STE20-like serine/threonine-protein kinase (Homo sapiens, UniProt Q9H2G2)
[7] = biological target: T3, Beta-adrenergic receptor kinase 1 (Homo sapiens, UniProt P25098)
T3 sequence (P25098 whole entry): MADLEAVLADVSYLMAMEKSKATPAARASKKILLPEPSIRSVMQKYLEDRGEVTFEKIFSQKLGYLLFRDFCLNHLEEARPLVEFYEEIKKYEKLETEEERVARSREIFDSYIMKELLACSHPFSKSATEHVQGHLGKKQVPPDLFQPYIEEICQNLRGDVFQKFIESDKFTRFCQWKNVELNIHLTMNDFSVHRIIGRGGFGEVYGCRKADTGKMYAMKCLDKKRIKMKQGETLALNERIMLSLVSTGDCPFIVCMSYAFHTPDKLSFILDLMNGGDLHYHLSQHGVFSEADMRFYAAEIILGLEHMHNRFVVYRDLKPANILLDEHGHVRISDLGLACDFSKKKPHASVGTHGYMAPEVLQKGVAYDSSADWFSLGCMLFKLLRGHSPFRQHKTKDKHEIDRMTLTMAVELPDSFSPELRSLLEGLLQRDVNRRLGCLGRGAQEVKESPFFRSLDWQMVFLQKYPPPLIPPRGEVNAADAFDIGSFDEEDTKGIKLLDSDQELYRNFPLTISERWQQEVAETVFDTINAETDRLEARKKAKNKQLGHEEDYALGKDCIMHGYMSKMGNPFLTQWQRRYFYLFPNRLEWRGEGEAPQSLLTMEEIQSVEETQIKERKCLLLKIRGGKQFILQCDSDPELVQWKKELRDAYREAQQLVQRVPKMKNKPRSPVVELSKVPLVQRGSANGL

[8] = biological target: Atypical kinase COQ8A, mitochondrial (Homo sapiens, UniProt Q8NI60)
[9] = biological target: U5 small nuclear ribonucleoprotein 200 kDa helicase (Homo sapiens, UniProt O75643)
[10] = biological target: Tyrosine-protein kinase BTK (Homo sapiens, UniProt Q06187)
[11] = biological target: Cyclin-dependent kinase 13 (Homo sapiens, UniProt Q14004)
[12] = biological target: Midasin (Homo sapiens, UniProt Q9NU22)
[13] = biological target: Mitogen-activated protein kinase 7 (Homo sapiens, UniProt Q13164)
Further: in the data inactive means no Kd found up to 30 µM.

Sequence of Tyrosine-protein kinase BTK (Q06187 whole entry): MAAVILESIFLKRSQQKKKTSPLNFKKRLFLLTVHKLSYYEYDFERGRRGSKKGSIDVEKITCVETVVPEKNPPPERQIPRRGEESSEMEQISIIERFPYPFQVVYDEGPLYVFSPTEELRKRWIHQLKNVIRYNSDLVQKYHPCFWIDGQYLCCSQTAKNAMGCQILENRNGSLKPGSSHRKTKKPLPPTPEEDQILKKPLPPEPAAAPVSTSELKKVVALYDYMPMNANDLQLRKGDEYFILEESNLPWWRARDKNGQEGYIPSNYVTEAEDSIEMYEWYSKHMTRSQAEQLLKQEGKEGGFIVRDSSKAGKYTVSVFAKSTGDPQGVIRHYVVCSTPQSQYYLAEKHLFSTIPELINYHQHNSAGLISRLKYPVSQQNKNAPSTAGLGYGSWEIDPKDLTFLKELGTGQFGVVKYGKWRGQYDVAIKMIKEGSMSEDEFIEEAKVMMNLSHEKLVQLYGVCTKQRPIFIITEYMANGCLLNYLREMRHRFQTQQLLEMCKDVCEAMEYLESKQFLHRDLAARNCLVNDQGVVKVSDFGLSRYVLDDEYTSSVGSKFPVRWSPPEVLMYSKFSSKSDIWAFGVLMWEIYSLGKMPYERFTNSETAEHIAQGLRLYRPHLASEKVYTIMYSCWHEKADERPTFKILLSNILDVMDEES
Sequence of Atypical kinase COQ8A, mitochondrial (Q8NI60 whole entry): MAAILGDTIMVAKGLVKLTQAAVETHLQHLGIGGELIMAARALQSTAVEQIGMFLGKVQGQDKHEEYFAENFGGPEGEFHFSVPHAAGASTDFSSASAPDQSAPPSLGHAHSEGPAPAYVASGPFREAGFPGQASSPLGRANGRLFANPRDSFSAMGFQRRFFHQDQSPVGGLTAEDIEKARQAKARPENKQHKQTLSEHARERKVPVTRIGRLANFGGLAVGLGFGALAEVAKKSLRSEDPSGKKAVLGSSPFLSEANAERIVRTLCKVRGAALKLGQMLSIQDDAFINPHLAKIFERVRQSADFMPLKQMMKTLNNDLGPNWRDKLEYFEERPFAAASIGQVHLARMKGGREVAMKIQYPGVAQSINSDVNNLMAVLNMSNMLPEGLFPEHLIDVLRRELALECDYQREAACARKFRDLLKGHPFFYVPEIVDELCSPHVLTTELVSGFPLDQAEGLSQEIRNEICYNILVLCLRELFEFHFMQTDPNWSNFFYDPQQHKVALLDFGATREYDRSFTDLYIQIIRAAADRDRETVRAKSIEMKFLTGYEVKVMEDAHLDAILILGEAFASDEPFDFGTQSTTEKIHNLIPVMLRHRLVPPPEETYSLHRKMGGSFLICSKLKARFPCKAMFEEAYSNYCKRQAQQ
Sequence of U5 small nuclear ribonucleoprotein 200 kDa helicase (O75643 whole entry): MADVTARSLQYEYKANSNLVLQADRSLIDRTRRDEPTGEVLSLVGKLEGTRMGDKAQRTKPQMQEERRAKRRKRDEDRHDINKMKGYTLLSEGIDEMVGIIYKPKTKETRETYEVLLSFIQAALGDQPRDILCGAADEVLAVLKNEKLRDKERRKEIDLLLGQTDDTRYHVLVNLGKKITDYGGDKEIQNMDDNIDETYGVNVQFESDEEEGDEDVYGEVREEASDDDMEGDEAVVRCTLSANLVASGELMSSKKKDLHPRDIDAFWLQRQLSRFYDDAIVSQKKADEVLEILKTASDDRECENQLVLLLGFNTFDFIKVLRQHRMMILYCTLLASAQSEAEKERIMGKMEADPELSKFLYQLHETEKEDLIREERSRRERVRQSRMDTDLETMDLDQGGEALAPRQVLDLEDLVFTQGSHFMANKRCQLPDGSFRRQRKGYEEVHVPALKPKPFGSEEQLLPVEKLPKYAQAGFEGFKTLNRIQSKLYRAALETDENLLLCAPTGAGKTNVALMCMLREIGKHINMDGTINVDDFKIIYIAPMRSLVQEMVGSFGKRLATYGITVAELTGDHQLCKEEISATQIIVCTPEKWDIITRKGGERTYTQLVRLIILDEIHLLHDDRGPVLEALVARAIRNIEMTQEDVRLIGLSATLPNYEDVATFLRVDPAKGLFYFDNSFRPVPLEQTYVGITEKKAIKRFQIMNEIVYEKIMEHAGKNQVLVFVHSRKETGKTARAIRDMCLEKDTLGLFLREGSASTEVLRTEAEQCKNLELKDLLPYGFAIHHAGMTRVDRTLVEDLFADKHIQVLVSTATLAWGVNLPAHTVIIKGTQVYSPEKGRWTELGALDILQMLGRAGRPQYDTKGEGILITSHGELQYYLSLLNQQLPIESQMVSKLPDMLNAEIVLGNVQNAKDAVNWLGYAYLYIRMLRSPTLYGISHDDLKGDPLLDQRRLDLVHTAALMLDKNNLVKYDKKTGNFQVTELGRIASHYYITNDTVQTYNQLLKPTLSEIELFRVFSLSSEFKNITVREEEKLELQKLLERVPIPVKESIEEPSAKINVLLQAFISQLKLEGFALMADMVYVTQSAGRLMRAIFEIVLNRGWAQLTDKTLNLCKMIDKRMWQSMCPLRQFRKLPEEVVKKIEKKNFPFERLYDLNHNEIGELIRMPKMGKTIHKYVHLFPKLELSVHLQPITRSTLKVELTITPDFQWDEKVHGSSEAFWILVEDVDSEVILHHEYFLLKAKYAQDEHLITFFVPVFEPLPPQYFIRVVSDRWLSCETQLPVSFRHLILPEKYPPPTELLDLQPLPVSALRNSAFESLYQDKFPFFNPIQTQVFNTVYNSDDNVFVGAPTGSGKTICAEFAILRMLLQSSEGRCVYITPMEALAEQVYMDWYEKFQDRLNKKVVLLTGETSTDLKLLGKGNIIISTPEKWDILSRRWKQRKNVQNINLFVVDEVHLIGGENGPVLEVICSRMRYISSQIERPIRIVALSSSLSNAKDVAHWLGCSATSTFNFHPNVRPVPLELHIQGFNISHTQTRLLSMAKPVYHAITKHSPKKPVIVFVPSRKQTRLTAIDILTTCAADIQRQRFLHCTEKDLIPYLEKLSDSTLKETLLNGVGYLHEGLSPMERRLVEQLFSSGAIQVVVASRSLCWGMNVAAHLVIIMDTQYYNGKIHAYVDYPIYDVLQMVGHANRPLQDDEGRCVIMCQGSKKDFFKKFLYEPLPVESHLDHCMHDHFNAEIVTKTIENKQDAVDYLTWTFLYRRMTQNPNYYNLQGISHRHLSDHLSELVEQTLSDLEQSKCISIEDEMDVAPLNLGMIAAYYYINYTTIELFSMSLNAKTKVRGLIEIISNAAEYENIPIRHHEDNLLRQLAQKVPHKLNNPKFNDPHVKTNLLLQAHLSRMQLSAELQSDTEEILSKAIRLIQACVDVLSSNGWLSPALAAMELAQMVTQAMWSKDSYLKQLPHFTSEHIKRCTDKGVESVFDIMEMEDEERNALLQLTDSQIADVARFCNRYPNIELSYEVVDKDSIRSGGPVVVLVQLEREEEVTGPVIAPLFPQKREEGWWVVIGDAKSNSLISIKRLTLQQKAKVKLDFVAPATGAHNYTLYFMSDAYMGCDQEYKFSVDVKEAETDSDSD
Sequence of Mitogen-activated protein kinase 7 (Q13164 whole entry): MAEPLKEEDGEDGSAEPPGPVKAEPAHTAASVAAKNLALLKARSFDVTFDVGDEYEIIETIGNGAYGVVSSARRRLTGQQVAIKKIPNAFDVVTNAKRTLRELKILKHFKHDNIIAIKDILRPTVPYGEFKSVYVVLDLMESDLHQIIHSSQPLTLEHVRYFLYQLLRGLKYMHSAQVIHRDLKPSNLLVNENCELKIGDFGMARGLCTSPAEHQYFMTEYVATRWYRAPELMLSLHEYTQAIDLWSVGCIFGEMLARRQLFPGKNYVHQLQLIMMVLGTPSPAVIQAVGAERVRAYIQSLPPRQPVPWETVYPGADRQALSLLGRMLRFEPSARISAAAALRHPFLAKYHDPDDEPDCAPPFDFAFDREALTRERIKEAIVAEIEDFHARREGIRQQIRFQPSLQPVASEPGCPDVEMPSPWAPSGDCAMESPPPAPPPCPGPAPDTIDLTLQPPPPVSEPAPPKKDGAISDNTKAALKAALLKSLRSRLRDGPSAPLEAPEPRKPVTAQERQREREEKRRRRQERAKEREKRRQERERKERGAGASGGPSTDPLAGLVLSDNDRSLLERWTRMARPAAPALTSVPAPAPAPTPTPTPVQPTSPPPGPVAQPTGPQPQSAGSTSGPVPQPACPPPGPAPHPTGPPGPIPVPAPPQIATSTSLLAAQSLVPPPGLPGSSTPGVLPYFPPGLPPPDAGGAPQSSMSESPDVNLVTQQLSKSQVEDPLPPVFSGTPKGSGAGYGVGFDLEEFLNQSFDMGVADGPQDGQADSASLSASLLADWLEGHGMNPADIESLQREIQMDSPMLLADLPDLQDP
Sequence of Casein kinase I isoform epsilon (P49674 whole entry, canonical isoform): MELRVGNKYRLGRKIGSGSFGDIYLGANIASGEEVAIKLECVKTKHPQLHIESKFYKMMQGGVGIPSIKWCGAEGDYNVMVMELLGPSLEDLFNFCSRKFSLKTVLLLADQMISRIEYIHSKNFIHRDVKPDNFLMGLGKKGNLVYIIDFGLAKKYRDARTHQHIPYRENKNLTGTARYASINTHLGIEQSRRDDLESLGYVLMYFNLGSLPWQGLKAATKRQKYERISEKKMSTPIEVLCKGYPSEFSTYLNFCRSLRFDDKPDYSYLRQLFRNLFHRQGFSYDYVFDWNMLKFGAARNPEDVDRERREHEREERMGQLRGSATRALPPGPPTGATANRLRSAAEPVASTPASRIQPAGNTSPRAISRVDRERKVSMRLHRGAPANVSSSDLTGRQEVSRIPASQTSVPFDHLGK

Kd [1]	Kd [2]	Kd [3]	Kd [4]	Kd [5]	Kd [6]	Kd [7]	Kd [8]	Kd [9]	Kd [10]	Kd [11]	Kd [12]	Kd [13]	SMILES
> 30 µM (inactive)	> 30 µM (inactive)	> 30 µM (inactive)	> 30 µM (inactive)	> 30 µM (inactive)	> 30 µM (inactive)	> 30 µM (inactive)	> 30 µM (inactive)	> 30 µM (inactive)	> 30 µM (inactive)	> 30 µM (inactive)	> 30 µM (inactive)	> 30 µM (inactive)	O=S(=O)(c1cccc2c(O)nccc12)N1CCCNCC1 [HYDROXYFASUDIL]
> 30 µM (inactive)	> 30 µM (inactive)	> 30 µM (inactive)	> 30 µM (inactive)	> 30 µM (inactive)	0.058 µM (active)	> 30 µM (inactive)	> 30 µM (inactive)	> 30 µM (inactive)	> 30 µM (inactive)	> 30 µM (inactive)	> 30 µM (inactive)	> 30 µM (inactive)	CC[C@@](C)(Nc1ccnc(-c2c[nH]c3ncccc23)n1)C(=O)NCC(F)(F)F [DECERNOTINIB]
> 30 µM (inactive)	> 30 µM (inactive)	> 30 µM (inactive)	> 30 µM (inactive)	> 30 µM (inactive)	> 30 µM (inactive)	> 30 µM (inactive)	> 30 µM (inactive)	> 30 µM (inactive)	> 30 µM (inactive)	> 30 µM (inactive)	> 30 µM (inactive)	> 30 µM (inactive)	CCc1cc2c(cc1N1CCC(N3CCOCC3)CC1)C(C)(C)c1[nH]c3cc(C#N)ccc3c1C2=O [ALECTINIB]
> 30 µM (inactive)	> 30 µM (inactive)	> 30 µM (inactive)	> 30 µM (inactive)	> 30 µM (inactive)	> 30 µM (inactive)	> 30 µM (inactive)	> 30 µM (inactive)	> 30 µM (inactive)	> 30 µM (inactive)	> 30 µM (inactive)	> 30 µM (inactive)	> 30 µM (inactive)	COc1cc(Nc2ncc(F)c(Nc3ccc4c(n3)N(COP(=O)(O)O)C(=O)C(C)(C)O4)n2)cc(OC)c1OC [FOSTAMATINIB]
> 30 µM (inactive)	> 30 µM (inactive)	> 30 µM (inactive)	> 30 µM (inactive)	> 30 µM (inactive)	> 30 µM (inactive)	> 30 µM (inactive)	> 30 µM (inactive)	> 30 µM (inactive)	> 30 µM (inactive)	> 30 µM (inactive)	> 30 µM (inactive)	> 30 µM (inactive)	Cc1ccc(C(=O)Nc2ccc(Oc3cc4cnn(C)c4cc3-c3cn[nH]c3)c(F)c2)c(=O)n1-c1ccc(F)cc1 [MERESTINIB]
> 30 µM (inactive)	> 30 µM (inactive)	> 30 µM (inactive)	0.285 µM (active)	> 30 µM (inactive)	> 30 µM (inactive)	> 30 µM (inactive)	> 30 µM (inactive)	> 30 µM (inactive)	> 30 µM (inactive)	> 30 µM (inactive)	> 30 µM (inactive)	> 30 µM (inactive)	c1cc(OCCN2CCCCC2)cc(-c2n[nH]c3ccc(-c4nc[nH]n4)cc23)c1 [CC-401]
> 30 µM (inactive)	> 30 µM (inactive)	> 30 µM (inactive)	> 30 µM (inactive)	> 30 µM (inactive)	> 30 µM (inactive)	> 30 µM (inactive)	> 30 µM (inactive)	> 30 µM (inactive)	> 30 µM (inactive)	> 30 µM (inactive)	> 30 µM (inactive)	> 30 µM (inactive)	C[C@@H]1COC(Nc2ccc3ncnc(Nc4ccc(OCc5nccs5)c(Cl)c4)c3c2)=N1 [VARLITINIB]
> 30 µM (inactive)	> 30 µM (inactive)	> 30 µM (inactive)	> 30 µM (inactive)	> 30 µM (inactive)	> 30 µM (inactive)	> 30 µM (inactive)	> 30 µM (inactive)	> 30 µM (inactive)	> 30 µM (inactive)	> 30 µM (inactive)	> 30 µM (inactive)	> 30 µM (inactive)	COc1cc2nccc(Oc3ccc(NC(=O)C4(C(=O)Nc5ccc(F)cc5)CC4)cc3)c2cc1OC [CABOZANTINIB]
> 30 µM (inactive)	> 30 µM (inactive)	> 30 µM (inactive)	> 30 µM (inactive)	> 30 µM (inactive)	> 30 µM (inactive)	> 30 µM (inactive)	> 30 µM (inactive)	> 30 µM (inactive)	> 30 µM (inactive)	> 30 µM (inactive)	> 30 µM (inactive)	> 30 µM (inactive)	CNC(=O)c1cccc(-c2ccc3c(N4CCOC[C@@H]4C)nc(N4CCOC[C@@H]4C)nc3n2)c1 [VISTUSERTIB]
> 30 µM (inactive)	> 30 µM (inactive)	> 30 µM (inactive)	> 30 µM (inactive)	> 30 µM (inactive)	> 30 µM (inactive)	> 30 µM (inactive)	> 30 µM (inactive)	> 30 µM (inactive)	> 30 µM (inactive)	> 30 µM (inactive)	> 30 µM (inactive)	> 30 µM (inactive)	S=C(NCc1ccc2c(c1)OCO2)N1CCN(c2ncnc3c2oc2ccccc23)CC1 [AMUVATINIB]

SMILES	Kd [1]	Kd [2]	Kd [3]	Kd [4]	Kd [5]	Kd [6]	Kd [7]	Kd [8]	Kd [9]	Kd [10]	Kd [11]	Kd [12]	Kd [13]
COCCN1CCN(Cc2ccc(-c3n[nH]c4c3C(=O)c3c(NC(=O)NN5CCOCC5)cccc3-4)cc2)CC1 [RGB-286638]	> 30 µM (inactive)	> 30 µM (inactive)	> 30 µM (inactive)	> 30 µM (inactive)	0.153 µM	> 30 µM (inactive)	> 30 µM (inactive)	> 30 µM (inactive)	> 30 µM (inactive)	> 30 µM (inactive)	1.01 µM (active)	> 30 µM (inactive)	> 30 µM (inactive)
